“Also recorded” adds a separate entry of the source. Where a SMILES comes first, the peptide text is derived from it. [ ]: non-standard residue; d: D form. The star is where a group is joined. Sta = CC(C)C[C@H](N)[C@@H](O)CC(=O)O; Isovaleryl = CC(C)CC(=O)*; Nle = CCCC[C@H](N)C(=O)O; Cbz = O=C(OCc1ccccc1)*; CH2F = FC*
Key:
PC3 cells [1] = experiment: PC3 cell viability and cell death (PI exclusion, annexin V, caspase-3/7); format: cell-based, human
Experimental: Cell viability and cell cycle analysis. Cell number and viability was measured using trypan blue exclusion assay using a Vi-Cell Analyzer (Beckman Coulter), or labeled with 1 μg/ml PI in PBS/1% BSA followed by cytofluorometric analysis with a fluorescence-activated cell sorter (FACS) (Becton Dickinson). FITC-conjugated Annexin V was used for the assessment of phosphatidylserine exposure by FACS analysis. Caspase activation was analyzed using a Caspase-Glo 3/7 Assay kit (Promega). For cell cycle analysis, cells were fixed with drop-wise addition of chilled 70% ethanol, washed with PBS and resuspended in staining solution containing 50 μg/ml PI and 60 units of RNAse A. DNA content was analyzed by flow cytometry using the FlowJo and ModFit software (Becton Dickinson).

PC3 cells [2] = experiment: Microarray analysis of autophagy gene expression in PC3 cells; format: cell-based, human; conditions: 1 or 5 μM for 6 or 24 hours, normalized to DMSO
Experimental: PC3 cells were induced to express shRNA to indicated Akt isoforms for 72 hours by Doxycycline, RNA was extracted from both Dox treated (Dox+) or untreated control (Dox−) cells. Microarray analysis was carried out using Affymetrix chips. Ratios of the expression levels of each autophagy gene from Dox+ and Dox− samples are shown. Data are mean values from 3 independent experiments.
RNA was extracted from the cells. Microarray analysis was carried out using Affymetrix chips. Expression levels of each autophagy gene are normalized to the DMSO controls. Data are mean values from 3 independent experiments.

PC3 cells [3] = experiment: Autophagy markers in PC3 cells (EM AVs, GFP-LC3, LC3-II/LC3-I, MDC, AO); format: cell-based, human; conditions: 3-MA pretreatment
Experimental: Western blot analysis, immunofluorescence, 1HC and TUNEL assay: For Western blot analysis, total protein lysates were subjected to SDS-PAGE and transferred to nitrocellulose. […] Detection and quantification were performed using an Odyssey infrared scanner (LICOR) using the manufacturer's software. For immunofluorescence staining, cells were fixed in 3% paraformaldehyde and permeabilized with 0.01% digitonin in PBS, followed by a rabbit polyclonal anti-LC3 (Abgent) primary antibody detected with a cy3-conjugated anti-rabbit secondary antibody (Jackson Immunoresearch). For IHC, formalin-fixed, paraffin-embedded specimens were collected. 5-μm-thick paraffin-embedded sections were stained using an anti-Ki-67 (MIB-1, DakoCytomation) antibody with the Dako ARK kit (Dako Corporation). Tissues were counterstained with haematoxylin, dehydrated, and mounted. In all cases, antigen retrieval was performed with the Dako Target Retrieval Kit as per manufacturer's instructions. For TUNEL assay, formalin-fixed, paraffin-embedded sections were stained using an in situ cell death detection kit (POD; Roche Diagnostic) according to the manufacturer's instructions.
Ultrathin sections were stained with uranyl acetate and lead citrate. Numbers of AV were counted on systematically sampled cytoplasmic areas of 4.5 μm^2 (n≧64 per condition). The percent AV area was measured by means of a square mesh grid laid over ≧5 sets of systematically sampled micrographs with each set covering a cytoplasmic area ≧80 μm^2. The average percent of apoptotic nuclei in tumor tissues was calculated from the number of apoptotic nuclei in 3 to 4 sets of 100 systematically counted tumor cell nuclei.
Multispectral imaging flow cytometry: Cells treated with various agents were stained with Acridine Orange and analyzed by the ImageStream system (Amnis Corporation, Seattle, Wash.) using the IDEAS image analysis program. The DNA AOGreen image and the vacuolar AO Red image were first compensated into separate channels, and then the percentage of apoptotic/anucleate cells (based on AO nuclear morphology and intensity) and vacuolated cells (AO Red+) were quantified. […] AORed Intensity is plotted on the second histogram with an arbitrary gate (R5) drawn to include events with the brightest AO Red intensity.

PC3 cells [4] = experiment: Mitochondrial superoxide (MitoSOX red) and cellular ROS in PC3 cells; format: cell-based, human
Experimental: (B) PC3 cells treated as in A were stained with the Image-iT LIVE green ROS Detection kit and examined by fluorescence microscopy at 24 h. […] (C) Quantification of MitoSOX red and ROS green fluorescence intensities by flow cytometry at 24 h. Cells were treated as in A and B. Error bars represent SEM (n=3).
Because mitochondria are the primary intracellular source of superoxide (O2^−) generation, we analyzed O2^− production using MitoSOX red, an O2^− indicator that accumulates in the mitochondria as a function of membrane potential and fluoresces upon oxidation and subsequent binding to DNA.

[5] = Autophagic vacuole accumulation by side scatter (SSC) in a flow cytometer; format: cell-based
From the text: Inhibitors include 3-phenyl-2-(4-((4-(5-(pyridin-2-yl)-1H-1,2,4-triazol-3-yl)piperidin-1-yl)methyl)phenyl)-1,6-naphthyridin-5(6H)-one (II-3), benzyl 2-(4-(3-ethylureido)phenyl)-4-(1,4-oxazepan-4-yl)-5H-pyrrolo[3,4-d]pyrimidine-6(7H)-carboxylate (III-1); 1-ethyl-3-(4-(4-morpholino-7-(pyrimidin-2-yl)-5,6,7,8-tetrahydropyrido[3,4-d]pyrimidin-2-yl)phenyl)urea (III-2), (R)-1-(44(2-(2-aminopyrimidin-5-yl)-7-methyl-4-morpholinothieno[3,2-d]pyrimidin-6-yl)methyl)piperazin-1-yl)-2-hydroxypropan-1-one (III-3), 4-(2-(1H-indazol-4-yl)-6-((4-(methylsulfonyl)piperazin-1-yl)methyl)thieno[3,2-d]pyrimidin-4-yl)morpholine (III-6), (S)—N-(4-(benzo[d][1,3]dioxol-5-yl)thiazol-2-yl)-N-(3-(2-formylpiperidin-1-yl)propyl)thiophene-2-carboxamide (IV-2) and Rapamycin.
FIG. 14 depicts CQ (10 μM) increases the number and size of autophagic vacuoles when combined with the various mTOR, PI3K, and Akt inhibitors.

## CC(NC(=O)[C@H](Cc1ccccc1)NC(=O)OCc1ccccc1)C(=O)CF (stereo partly drawn) [zFA.fmk]
PC3 cells [1]
  rescue of cell death induced by II-4 (Akti) and CQ: Neither of the broad-spectrum cysteine protease inhibitors zFA.fmk and N-Acetyl-Leu-Leu-Nle-CHO nor a more specific cathepsin B inhibitor CA-074-Me showed significant rescue of cell death

## CCCNC(=O)[C@H]1O[C@@H]1C(=O)N[C@H](C(=O)N1CCC[C@H]1C(=O)OC)[C@@H](C)CC [CA-074-Me]
PC3 cells [1]
  rescue of cell death induced by II-4 (Akti) and CQ: Neither of the broad-spectrum cysteine protease inhibitors zFA.fmk and N-Acetyl-Leu-Leu-Nle-CHO nor a more specific cathepsin B inhibitor CA-074-Me showed significant rescue of cell death

## Cc1nc(-c2ccc(CN3CCC(n4c(=O)[nH]c5ccccc54)CC3)cc2)c(-c2ccccc2)nc1O [II-1, 1-(1-(4-(5-hydroxy-6-methyl-3-phenylpyrazin-2-yl)benzyl)piperidin-4-yl)-1H-benzo[d]imidazol-2(3H)-one]
PC3 cells [2]
  autophagy gene expression: induce autophagy gene expression

## Cn1cnc(N)c2ncnc1-2 [3-MA, 3-methyladenine]
PC3 cells [3]
  effect of 3-MA on LC3-II to -I ratios and MDC+ vacuoles in III-5 and CQ treated cells: suppressed this effect; also recorded: reduced both LC3-II to -I ratios and the accumulation of MDC^+ vacuoles
PC3 cells [1]; 1 mM 3-MA
  effect of 3-MA pretreatment on cell death promoted by CQ or Ba in shAkt expressing cells: delayed this effect; also recorded: suppressed the cell death-promoting effect of either CQ or Ba
PC3 cells [1]; 3-MA pretreatment
  effect of 3-MA on rate of cell death in III-5 and CQ treated cells: slowed down the rate of cell death
PC3 cells [4]
  effect of 3-MA pretreatment on ROS levels: reduced ROS signals generated by CQ, Akti and Akti+CQ; also recorded: reduced ROS levels induced by II-4

## CCCC[C@@H](C=O)NC(=O)[C@H](CC(C)C)NC(=O)[C@H](CC(C)C)NC(C)=O [N-Acetyl-Leu-Leu-Nle-CHO] (Ac-Leu-Leu-[Nle]-aldehyde)
PC3 cells [1]
  rescue of cell death induced by II-4 (Akti) and CQ: Neither of the broad-spectrum cysteine protease inhibitors zFA.fmk and N-Acetyl-Leu-Leu-Nle-CHO nor a more specific cathepsin B inhibitor CA-074-Me showed significant rescue of cell death

## CO/C1=C\C(C)=C\[C@@H](C)[C@@H](O)[C@@H](C)C/C(C)=C/C=C/[C@H](OC)[C@@H]([C@@H](C)[C@@H](O)[C@H](C)[C@@]2(O)C[C@@H](O)[C@H](C)[C@@H](C(C)C)O2)OC1=O [Ba, bafilomycin A1]
PC3 cells [1]; Dox, 10 μM CQ or […] Ba, 0.5% or 0% FBS
  cell death in combination with shAkt123: promoted cell death in combination with shAkt 123

## CCNC(=O)Nc1ccc(-c2nc3c(c(N4CCCOCC4)n2)CN(C(=O)OCc2ccccc2)C3)cc1 [III-1, benzyl 2-(4-(3-ethylureido)phenyl)-4-(1,4-oxazepan-4-yl)-5H-pyrrolo[3,4-d]pyrimidine-6(7H)-carboxylate]
[5]
  autophagic vacuole accumulation (SSC), inhibitor alone: induce increased autophagic vacuole accumulation

## CO[C@H]1C[C@@H]2CC[C@@H](C)[C@@](O)(O2)C(=O)C(=O)N2CCCC[C@H]2C(=O)O[C@H]([C@H](C)C[C@@H]2CC[C@@H](O)[C@H](OC)C2)CC(=O)[C@H](C)/C=C(\C)[C@@H](O)[C@@H](OC)C(=O)[C@H](C)C[C@H](C)/C=C/C=C/C=C/1C [Rapamycin, rapamycin]
[5]
  autophagic vacuole accumulation (SSC), inhibitor alone: induce increased autophagic vacuole accumulation

## CCNC(=O)Nc1ccc(-c2nc3c(c(N4CCOCC4)n2)CCN(c2ncccn2)C3)cc1 [III-2, 1-ethyl-3-(4-(4-morpholino-7-(pyrimidin-2-yl)-5,6,7,8-tetrahydropyrido[3,4-d]pyrimidin-2-yl)phenyl)urea]
[5]
  autophagic vacuole accumulation (SSC), inhibitor alone: induce increased autophagic vacuole accumulation

## NC(=O)[C@@H]1CCCCN1CCCN(C(=O)c1cccs1)c1nc(-c2cc(-c3ccccc3)no2)cs1 [IV-1, (S)-1-(3-(N-(4-(3-phenylisoxazol-5-yl)thiazol-2-yl)thiophene-2-carboxamido)propyl)piperidine-2-carboxamide]
PC3 cells [2]
  autophagy gene expression: induce autophagy gene expression

## Cc1c(CN2CCN(C(=O)[C@@H](C)O)CC2)sc2c(N3CCOCC3)nc(-c3cnc(N)nc3)nc12 [III-3]
[5]
  autophagic vacuole accumulation (SSC), inhibitor alone: induce increased autophagic vacuole accumulation

## COC(=O)C[C@H](NC(=O)[C@H](C)NC(=O)[C@@H](NC(=O)OCc1ccccc1)C(C)C)C(=O)CF [zVAD.fmk] (Cbz-Val-Ala-Asp(OMe)-CH2F)
PC3 cells [1]
  rescue of cell death induced by II-4 (Akti) and CQ: partially rescued cell death at all concentrations tested

## O=c1[nH]ccc2nc(-c3ccc(CN4CCC(c5n[nH]c(-c6ccccn6)n5)CC4)cc3)c(-c3ccccc3)cc12 [II-3, 3-phenyl-2-(4-((4-(5-(pyridin-2-yl)-1H-1,2,4-triazol-3-yl)piperidin-1-yl)methyl)phenyl)-1,6-naphthyridin-5(6H)-one]
[5]
  autophagic vacuole accumulation (SSC), inhibitor alone: induce increased autophagic vacuole accumulation

## CC(C)CC(=O)N[C@H](C(=O)N[C@H](C(=O)N[C@@H](CC(C)C)[C@@H](O)CC(=O)N[C@@H](C)C(=O)N[C@@H](CC(C)C)[C@@H](O)CC(=O)O)C(C)C)C(C)C [pepstatin A] (Isovaleryl-VV[Sta]A[Sta]-OH)
PC3 cells [1]
  cell death in combination with II-4 (Akti): promoted cell death together with Akti-112

## O=C[C@@H]1CCCCN1CCCN(C(=O)c1cccs1)c1nc(-c2ccc3c(c2)OCO3)cs1 [IV-2, (S)—N-(4-(benzo[d][1,3]dioxol-5-yl)thiazol-2-yl)-N-(3-(2-formylpiperidin-1-yl)propyl)thiophene-2-carboxamide]
[5]
  autophagic vacuole accumulation (SSC), inhibitor alone: induce increased autophagic vacuole accumulation
